# Measured values published in patent US6500826B1, “Use of panaverium bromide for preventing cell proliferation and diseases caused thereby in the liver and digestive tract” (Solvay Pharma, priority 1996, dated 2002).
# What was measured:
# Type in all cases: cell-based
# [1] = test system: LFC rat hepatocarcinoma cells; assay: Inhibition of proliferation of LFC hepatocarcinoma cells, tritiated thymidine incorporation; conditions: concentrations of 0.1% and 1% by weight
# Experimental: LFC rat hepatocarcinoma cells (VPR42, Villejuif) are cultured at the rate of 10^4 or 5×10^4 cells in a well containing 200 μl of culture medium.
# Inhibition of cell proliferation is assessed using tritiated thymidine as described in Test 1. The assessment is made in comparison with the reference product, which is verapamil.
# [2] = test system: STC-1 mouse intestinal cancer cell lines; assay: Growth of STC-1 carcinoid intestinal cells, cell counting or MUH fluorescence; conditions: STC-1, read-out: ED50 (cell growth)
# Experimental: The STC-1 mouse intestinal cancer cell lines are cultured in a DMEM medium which contains 15% horse serum and 2.5% FCS. The products to be studied are added to the culture and cell growth is assessed by counting cells or, more frequently, by a fluorescence technique which is based on the cellular enzymic hydrolysis of the fluorogenic substrate 4-methylumbelliferyl heptanoate (MUH); thus, viable cells which are incubated with MUH generate a fluorescent signal which is proportional to their number and which is determined using a “Titentec Fluoroscan II” (Flow Laboratory), with the value being given in arbitrary fluorescence units.
# [3] = test system: HT29 colon cancer cell line; assay: Inhibition of proliferation of HT29 colon cancer cells, tritiated thymidine incorporation; conditions: Homo sapiens, HT-29, 15 h, read-out: % Inhibition of cell proliferation (3HThdR incorporation)
# Experimental: The HT29 colon cancer cell line employed (originally isolated from an adenocarcinoma of the human colon) was obtained from the ATCC (American Type Culture Collection).
# The cells are cultured at the rate of 10^4 or 5×10^4 cells in a well containing 200 μl of culture medium composed of RPMI […] supplemented with 10% fetal calf serum, 2 mM of L-glutamine and 25 μM gentamicin.
# [4] = test system: BON human pancreatic carcinoid cell lines; assay: Inhibition of growth of BON pancreatic carcinoid cells, MUH fluorescence; conditions: 192 h, read-out: ED50 (inhibition of cell growth)
# Experimental: The BON human pancreatic carcinoid cell lines are cultured in a DMEM/F12K (1/1) medium to which 10% FCS is added.
smiles,measurement,setting,value
COc1ccc(CCN(C)CCCC(C#N)(c2ccc(OC)c(OC)c2)C(C)C)cc1OC (stereo not drawn) [verapamil],percentage inhibition of proliferation,[1],72%
same,EC50,[2],13 µM
same,inhibition at 0.025 % strength,[3],17%
same,inhibition at 0.05 % strength,[3],17%
same,inhibition at 0.1 % strength,[3],27%
same,EC50,[4],43.6 µM
